Assay results published in patent publication US10793599B2, “MPHOSPH1-derived peptide, and vaccine including same” (OncoTherapy Science, Inc., priority 2015, dated 2020).
“Also recorded” adds a separate entry of the source.

What was measured:
[1] = system: COS7 cells expressing MPHOSPH1 and HLA-A*33:03; test: IFN-gamma production of CTL clone against target cells expressing MPHOSPH1 and HLA-A*33:03; assay type: cell-based, African green monkey
Description: (§1) Peptide-pulsed C1R-A33 (1×10^4 cells/well) was prepared as the target cell. The IFN-gamma ELISPOT assay and IFN-gamma ELISA assay were performed according to the assay kit manufacturer's manual.
A cDNA encoding the MPHOSPH1 or HLA-A*33:03 gene was amplified by PCR. The PCR-amplified product was each incorporated into an expression vector. Either or both of the MPHOSPH1 gene-expressing vector and the HLA-A*33:03 gene-expressing vector were introduced into COS7, which is a cell line negative for HLA, using Lipofectamine 2000 (Invitrogen). On the day after gene introduction, COS7 cells were detached and harvested using versene (Invitrogen), and used as the target cell for confirmation of IFN-gamma production (5×10^4 cells/well).

[2] = system: peptide-pulsed C1R-A33; test: In vitro CTL induction, IFN-gamma ELISPOT assay (HLA-A*33:03); assay type: cell-based, human; conditions: CD8 positive T cells of HLA-A*33:03-positive donors after three stimulations with peptide-pulsed DCs; against peptide-pulsed C1R-A33; listed as MPHOSPH1-A33-9-608
Description: Monocyte-derived dendritic cells (DCs) were used as the antigen-presenting cell to induce a specific cytotoxic T lymphocyte (CTL) response against peptides presented on human leukocyte antigens (HLAs). As already reported in literatures, DCs were generated in vitro (Nakahara S et al., Cancer Res 2003, 63(14): 4112-8). Specifically, peripheral-blood mononuclear cells (PBMCs) collected from healthy volunteers (HLA-A*33:03-positive) with the Ficoll-Paque plus solution (Pharmacia) were seeded in plastic tissue culture dishes (Corning) to let the monocytes in the PBMCs adhere to the dishes. This was cultured in the presence of 1000 IU/ml granulocyte macrophage colony-stimulating factor (R&D System) and 1000 IU/ml interleukin (IL)-4 (R&D System) for seven days. An AIM-V medium (Invitrogen) containing 5% inactivated AB-type serum (ABS) was used as the medium. DCs that were induced to differentiate from monocytes using the cytokines were pulsed with 20 micro-g/ml of each synthesized peptide (37 degrees C., three hours). Peptide pulsing was carried out in an AIM-V medium containing 3 micro-g/ml beta 2-microglobulin. These peptide-pulsed DCs were inactivated by X-ray irradiation (20 Gy), mixed in a 1:20 ratio with autologous CD8 positive T cells obtained by positive selection using the CD8 Positive Isolation Kit (Invitrogen) (1.5×10^4 DCs and 3×10^5 CD8 positive T cells), and cultured in a 48-well plate (Corning). Each well contained 0.5 ml of the 5% ABS/AIM-V medium, and IL-7 (R&D System) was added there (final concentration: 10 ng/ml). Two days after the start of the culture, IL-2 (Novartis) was added (final concentration: 20 IU/ml). On day 7 and day 14 of culture, the CD8 positive T cells were further stimulated with peptide-pulsed DCs. The DCs were prepared at the time of use by the same method as above. After day 21 (after three DC stimulations), IFN-gamma production against the peptide-pulsed C1R-A33 was confirmed using human interferon (IFN)-gamma enzyme-linked immunospot (ELISPOT) assay (Tanaka H et al., Br J Cancer 2001, 84(1): 94-9; Umano Y et al., Br J Cancer 2001, 84(8): 1052-7: Uchida N et al., Clin Cancer Res 2004, 10(24): 8577-86; Suda T et al., Cancer Sci 2006, 97(5): 411-9; Watanabe T et al., Cancer Sci 2005, 96(8): 498-506).
as §1

[3] = system: peptide-pulsed C1R-A33; test: IFN-gamma ELISA of CTL lines and CTL clones (HLA-A*33:03); assay type: cell-based, human; conditions: listed as MPHOSPH1-A33-9-608
Description: CTLs were propagated using methods similar to those reported by Riddell et al. (Walter E A et al., N Engl J Med 1995, 333(16): 1038-44; Riddell S R et al., Nat Med 1996, 2(2): 216-23). The CTLs were cultured in 25 ml 5% ABS/AIM-V medium together with two types of Mitomycin C-treated human B lymphoblastoid cell lines (5×10^6 cells/25 ml medium each) and an anti-CD3 antibody (final concentration: 40 ng/ml). On the day after beginning of the culturing, IL-2 (final concentration: 120 IU/ml) was added to the culture. On days 5, 8 and 11, the medium was changed to a 5% ABS/AIM-V medium containing IL-2 (final concentration: 30 IU/ml) (Tanaka H et al., Br J Cancer 2001, 84(1): 94-9; Umano Y et al., Br J Cancer 2001, 84(8): 1052-7; Uchida N et al., Clin Cancer Res 2004, 10(24): 8577-86; Suda T et al., Cancer Sci 2006, 97(5): 411-9; Watanabe T et al., Cancer Sci 2005, 96(8): 498-506).
After induction of CTLs in vitro, the CTLs were seeded onto 96 round-bottomed microtiter plates (Nalge Nunc International) at 1 cell/well or 10 cells/well. The CTLs were cultured with two types of Mitomycin C-treated human B lymphoblastoid cell lines (1×10^4 cells/well each) in a total of 150 micro-l/well 5% ABS/AIM-V medium with an anti-CD3 antibody (final concentration: 30 ng/ml) and IL-2 (final concentration: 125 IU/ml). Ten days later, 50 micro-l 5% ABS/AIM-V medium containing 500 IU/ml IL-2 was added to the culture.
as §1

**Q.** For “EFTQYWAQR (a peptide derived from MPHOSPH1) [SEQ ID NO: 118]”, which “IFN-gamma production of peptide-specific CTL clone” value ([1]; against COS7 cells expressing both MPHOSPH1 and HLA-A*33:03) is on record?
**A.** The value was “showed IFN-gamma production”.

**Q.** And the “IFN-gamma production of peptide-specific CTL clone” value ([1]; against negative control COS7 cells expressing either one of MPHOSPH1 and HLA-A*33:03, listed as MPHOSPH1-A33-9-608)?
**A.** Its value is “a significant IFN-gamma production was not shown; also recorded: a significant IFN-gamma production was not observed”.

**Q.** What about the “peptide-specific IFN-gamma production (ELISPOT)” value [2] of the same sequence?
**A.** The value was “Peptide-specific IFN-gamma production was observed”.

**Q.** What about the “peptide-specific IFN-gamma production of CTL clone (ELISA)” value ([3]; CTL clone by limiting dilution, against C1R-A33 pulsed with the peptide) of the same sequence?
**A.** The value was “showed a peptide-specific IFN-gamma production”.

**Q.** What about the “IFN-gamma production by CTL line (ELISA)” value ([3]; CTL line against C1R-A33 pulsed with the peptide) of the same sequence?
**A.** The value was “CTL lines that produce IFN-gamma in a peptide-specific manner were established; also recorded: observed”.
